Target: T1, mTOR (Homo sapiens, UniProt P42345)
T1 construct: purchased Invitrogen PR8683A
Assay: mTOR HTR-FRET assay
Assay type: biochemical
Details: read-out: Act. Level (IC50 in mTor HTR-FRET assay)
Procedure: The following is an example of an assay that can be used to determine the mTOR inhibitory activity of a test compound. Heteroaryl Compounds were dissolved in DMSO and prepared as 10 mM stocks and diluted appropriately for the experiments. Reagents were prepared as follows:
“Simple TOR buffer” (used to dilute high glycerol TOR fraction): 10 mM Tris pH 7.4, 100 mM NaCl, 0.1% Tween-20, 1 mM DTT. Invitrogen mTOR (cat #PR8683A) was diluted in this buffer to an assay concentration of 0.200 μg/mL.
To 20 μL of the Simple mTor buffer is added 0.5 μL of test compound in DMSO. To initiate the reaction 5 μL of ATP/Substrate solution was added to 20 μL of the Simple TOR buffer solution (control) and to the compound solution prepared above.

T1 sequence (P42345 1360-2549 limits assumed): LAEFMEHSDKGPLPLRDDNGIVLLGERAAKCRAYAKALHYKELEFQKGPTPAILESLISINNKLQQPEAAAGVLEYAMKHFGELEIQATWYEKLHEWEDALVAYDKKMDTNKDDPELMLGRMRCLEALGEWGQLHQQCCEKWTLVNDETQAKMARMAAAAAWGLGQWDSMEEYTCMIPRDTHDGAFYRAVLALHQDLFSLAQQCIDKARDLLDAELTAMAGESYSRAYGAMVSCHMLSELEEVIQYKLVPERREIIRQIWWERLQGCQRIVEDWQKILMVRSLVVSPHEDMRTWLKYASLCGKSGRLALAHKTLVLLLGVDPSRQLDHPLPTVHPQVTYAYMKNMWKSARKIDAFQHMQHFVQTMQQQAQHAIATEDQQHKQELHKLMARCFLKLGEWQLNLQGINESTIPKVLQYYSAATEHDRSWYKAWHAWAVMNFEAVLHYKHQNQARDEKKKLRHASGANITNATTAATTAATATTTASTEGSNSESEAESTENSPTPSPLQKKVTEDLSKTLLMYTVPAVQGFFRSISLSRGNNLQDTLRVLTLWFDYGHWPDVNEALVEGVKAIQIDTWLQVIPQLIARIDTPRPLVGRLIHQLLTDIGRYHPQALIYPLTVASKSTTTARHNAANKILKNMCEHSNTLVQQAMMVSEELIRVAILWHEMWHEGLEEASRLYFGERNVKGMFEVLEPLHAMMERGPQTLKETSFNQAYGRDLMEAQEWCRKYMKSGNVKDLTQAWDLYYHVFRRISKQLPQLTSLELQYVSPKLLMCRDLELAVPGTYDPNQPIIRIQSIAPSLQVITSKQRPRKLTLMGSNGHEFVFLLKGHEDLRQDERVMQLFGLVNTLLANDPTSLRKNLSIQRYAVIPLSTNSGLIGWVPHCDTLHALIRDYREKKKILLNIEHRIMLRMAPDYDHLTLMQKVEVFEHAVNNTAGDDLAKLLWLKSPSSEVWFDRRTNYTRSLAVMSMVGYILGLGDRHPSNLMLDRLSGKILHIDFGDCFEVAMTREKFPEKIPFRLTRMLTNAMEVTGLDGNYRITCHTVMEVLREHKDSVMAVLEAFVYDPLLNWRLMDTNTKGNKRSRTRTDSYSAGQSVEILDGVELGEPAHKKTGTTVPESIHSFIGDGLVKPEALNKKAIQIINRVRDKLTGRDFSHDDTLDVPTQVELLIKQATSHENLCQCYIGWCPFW

CO[C@H]1CC[C@@H](CN2CC(=O)Nc3ncc(-c4ccc(C(C)(C)O)nc4)nc32)C1 [Example 57, 6-(6-(2-hydroxypropan-2-yl)pyridin-3-yl)-4-(((1R,3S)-3-methoxycyclopentyl)methyl)-3,4-dihydropyrazino[2,3-b]pyrazin-2(1H)-one]
IC50: 0.005 to 250 nM

CC(C)(O)c1ccc(-c2cnc3c(n2)N(CCC2CCCOC2)CC(=O)N3)cn1 (centres unmarked) [Example 109, 6-(6-(2-hydroxypropan-2-yl)pyridin-3-yl)-4-(2-(tetrahydro-2H-pyran-3-yl)ethyl)-3,4-dihydropyrazino[2,3-b]pyrazin-2(1H)-one]
IC50: 0.005 to 250 nM

CNc1nc2c(C)cc(-c3cnc4c(n3)N(CCOC)C(=O)CN4)cc2[nH]1 [Example 237, 1-(2-methoxyethyl)-7-(4-methyl-2-(methylamino)-1H-benzo[d]imidazol-6-yl)-3,4-dihydropyrazino[2,3-b]pyrazin-2(1H)-one]
IC50: 0.005 to 250 nM

COCCN1C(=O)CNc2ncc(-c3ccc(-c4cc[nH]n4)cc3)nc21 [Example 186, 7-(4-(1H-pyrazol-3-yl)phenyl)-1-(2-methoxyethyl)-3,4-dihydropyrazino[2,3-b]pyrazin-2(1H)-one]
IC50: 0.005 to 250 nM

COCCN1C(=O)CNc2ncc(-c3ccc(-c4nnc[nH]4)c(F)c3)nc21 [Example 242, 7-(3-fluoro-4-(4H-1,2,4-triazol-3-yl)phenyl)-1-(2-methoxyethyl)-3,4-dihydropyrazino[2,3-b]pyrazin-2(1H)-one]
IC50: 0.005 to 250 nM

Cc1cc(-c2cnc3c(n2)N(CCC2CCOCC2)CC(=O)N3)cc2[nH]cnc12 [Example 147, 6-(4-methyl-1H-benzo[d]imidazol-6-yl)-4-(2-(tetrahydro-2H-pyran-4-yl)ethyl)-3,4-dihydropyrazino[2,3-b]pyrazin-2(1H)-one]
IC50: 500 to 1000 nM

O=C1CNc2ncc(-c3cccc4[nH]cnc34)nc2N1CCC1CCOCC1 [Example 156, 7-(1H-benzo[d]imidazol-4-yl)-1-(2-(tetrahydro-2H-pyran-4-yl)ethyl)-3,4-dihydropyrazino[2,3-b]pyrazin-2(1H)-one]
IC50: 500 to 1000 nM

COCC(=O)N1CCN2c3nc(-c4ccc(-c5nnc[nH]5)cc4C)cnc3NC(=O)C2C1 (centres unmarked) [Example 96, 9-(4-(4H-1,2,4-triazol-3-yl)-2-methylphenyl)-3-(2-methoxyacetyl)-6,11,4a-trihydropiperazino[1,2-e]pyrazino[2,3-b]pyrazin-5-one]
IC50: 0.005 to 250 nM

O=C1CNc2ncc(-c3ccc4cc[nH]c4c3)nc2N1CCC1CCOCC1 [Example 232, 7-(1H-indol-6-yl)-1-(2-(tetrahydro-2H-pyran-4-yl)ethyl)-3,4-dihydropyrazino[2,3-b]pyrazin-2(1H)-one]
IC50: 250 to 500 nM

O=C1CN(CCC2CCOCC2)c2nc(-c3cnc4nc[nH]c4c3)cnc2N1 [Example 36, 6-(1H-imidazo[4,5-b]pyridin-6-yl)-4-(2-(tetrahydro-2H-pyran-4-yl)ethyl)-3,4-dihydropyrazino[2,3-b]pyrazin-2(1H)-one]
IC50: 500 to 1000 nM

CO[C@H]1CC[C@H](CN2C(=O)CNc3ncc(-c4cnc(-c5nc[nH]n5)cc4C)nc32)CC1 [Example 204, 1-((trans-4-methoxycyclohexyl)methyl)-7-(4-methyl-6-(1H-1,2,4-triazol-3-yl)pyridin-3-yl)-3,4-dihydropyrazino[2,3-b]pyrazin-2(1H)-one]
IC50: 0.005 to 250 nM

Cc1cc(-c2nc[nH]n2)c(F)cc1-c1cnc2c(n1)N(C1CCOCC1)C(=O)CN2 [Example 166, 7-(5-fluoro-2-methyl-4-(1H-1,2,4-triazol-3-yl)phenyl)-1-(tetrahydro-2H-pyran-4-yl)-3,4-dihydropyrazino[2,3-b]pyrazin-2(1H)-one]
IC50: 0.005 to 250 nM

NC(=O)c1ccc(-c2cnc3c(n2)N(CCC2CCOCC2)C(=O)CN3)cc1 [Example 222, 4-(7-oxo-8-(2-(tetrahydro-2H-pyran-4-yl)ethyl)-5,6,7,8-tetrahydropyrazino[2,3-b]pyrazin-2-yl)benzamide]
IC50: 0.005 to 250 nM

CO[C@H]1CC[C@H](N2C(=O)CNc3ncc(-c4cc(F)c(-c5nc[nH]n5)cc4C)nc32)CC1 [Example 173, 7-(5-fluoro-2-methyl-4-(1H-1,2,4-triazol-3-yl)phenyl)-1-(trans-4-methoxycyclohexyl)-3,4-dihydropyrazino[2,3-b]pyrazin-2(1H)-one]
IC50: 0.005 to 250 nM

CO[C@H]1CC[C@H](CN2CC(=O)Nc3ncc(-c4ccc(C(C)(C)O)cc4)nc32)CC1 [Example 87, 6-(4-(2-hydroxypropan-2-yl)phenyl)-4-((trans-4-methoxycyclohexyl)methyl)-3,4-dihydropyrazino[2,3-b]pyrazin-2(1H)-one]
IC50: 250 to 500 nM

COCCN1C(=O)CNc2ncc(-c3ccc(C(C)(C)O)cc3)nc21 [Example 252, 7-(4-(2-hydroxypropan-2-yl)phenyl)-1-(2-methoxyethyl)-3,4-dihydropyrazino[2,3-b]pyrazin-2(1H)-one]
IC50: 1000 to 10000 nM

Cc1c(-c2cnc3c(n2)N(C2CCOCC2)CC(=O)N3)ccc(-c2nc[nH]n2)c1F [Example 27, 6-(3-fluoro-2-methyl-4-(1H-1,2,4-triazol-3-yl)phenyl)-4-(tetrahydro-2H-pyran-4-yl)-3,4-dihydropyrazino[2,3-b]pyrazin-2(1H)-one]
IC50: 0.005 to 250 nM

CO[C@H]1CC[C@H](CN2C(=O)CNc3ncc(-c4cc(F)c(-c5nc[nH]n5)cc4C)nc32)CC1 [Example 150, 7-(5-fluoro-2-methyl-4-(1H-1,2,4-triazol-3-yl)phenyl)-1-((trans-4-methoxycyclohexyl)methyl)-3,4-dihydropyrazino[2,3-b]pyrazin-2(1H)-one]
IC50: 0.005 to 250 nM

CCN1C(=O)CNc2ncc(-c3cccc4[nH]ncc34)nc21 [Example 194, 1-ethyl-7-(1H-indazol-4-yl)-3,4-dihydropyrazino[2,3-b]pyrazin-2(1H)-one]
IC50: 1000 to 10000 nM

Nc1ncc(-c2cnc3c(n2)N(CCC2CCOCC2)C(=O)CN3)cn1 [Example 182, 7-(2-aminopyrimidin-5-yl)-1-(2-(tetrahydro-2H-pyran-4-yl)ethyl)-3,4-dihydropyrazino[2,3-b]pyrazin-2(1H)-one]
IC50: 250 to 500 nM

CC(C)(O)c1ccc(-c2cnc3c(n2)N(CCN2CCOCC2)C(=O)CN3)cn1 [Example 216, 7-(6-(2-hydroxypropan-2-yl)pyridin-3-yl)-1-(2-morpholinoethyl)-3,4-dihydropyrazino[2,3-b]pyrazin-2(1H)-one]
IC50: 0.005 to 250 nM

O=C1CNc2ncc(-c3ccc4cn[nH]c4c3)nc2N1CCC1CCOCC1 [Example 212, 7-(1H-indazol-6-yl)-1-(2-(tetrahydro-2H-pyran-4-yl)ethyl)-3,4-dihydropyrazino[2,3-b]pyrazin-2(1H)-one]
IC50: 0.005 to 250 nM

O=C1CNc2ncc(-c3cccc4[nH]ccc34)nc2N1CCC1CCOCC1 [Example 167, 7-(1H-indol-4-yl)-1-(2-(tetrahydro-2H-pyran-4-yl)ethyl)-3,4-dihydropyrazino[2,3-b]pyrazin-2(1H)-one]
IC50: 250 to 500 nM

CO[C@H]1CC[C@H](N2C(=O)CNc3ncc(-c4ccc(C(C)(C)O)cc4)nc32)CC1 [Example 233, 7-(4-(2-hydroxypropan-2-yl)phenyl)-1-(trans-4-methoxycyclohexyl)-3,4-dihydropyrazino[2,3-b]pyrazin-2(1H)-one]
IC50: 0.005 to 250 nM

N#Cc1cccc(-c2cnc3c(n2)N(CCC2CCOCC2)CC(=O)N3)c1 [Example 34, 3-(6-oxo-8-(2-(tetrahydro-2H-pyran-4-yl)ethyl)-5,6,7,8-tetrahydropyrazino[2,3-b]pyrazin-2-yl)benzonitrile]
IC50: 500 to 1000 nM

COCCN1C(=O)CNc2ncc(-c3cccc4[nH]ncc34)nc21 [Example 188, 7-(1H-indazol-4-yl)-1-(2-methoxyethyl)-3,4-dihydropyrazino[2,3-b]pyrazin-2(1H)-one]
IC50: 1000 to 10000 nM

CO[C@H]1CC[C@@H](N2C(=O)CNc3ncc(-c4ccc(-c5nc[nH]n5)nc4)nc32)CC1 [Example 151, 7-(6-(1H-1,2,4-triazol-3-yl)pyridin-3-yl)-1-(cis-4-methoxycyclohexyl)-3,4-dihydropyrazino[2,3-b]pyrazin-2(1H)-one]
IC50: 0.005 to 250 nM

Cc1cc(-c2nc[nH]n2)c(F)cc1-c1cnc2c(n1)N(C1CCOCC1)CC(=O)N2 [Example 24, 6-(5-fluoro-2-methyl-4-(1H-1,2,4-triazol-3-yl)phenyl)-4-(tetrahydro-2H-pyran-4-yl)-3,4-dihydropyrazino[2,3-b]pyrazin-2(1H)-one]
IC50: 0.005 to 250 nM

O=C1CNc2ncc(-c3cccc4[nH]ncc34)nc2N1CCC1CCOCC1 [Example 181, 7-(1H-indazol-4-yl)-1-(2-(tetrahydro-2H-pyran-4-yl)ethyl)-3,4-dihydropyrazino[2,3-b]pyrazin-2(1H)-one]
IC50: 0.005 to 250 nM

O=C1CN(CCC2CCOCC2)c2nc(-c3ccc4cc[nH]c4c3)cnc2N1 [Example 44, 6-(1H-indol-6-yl)-4-(2-(tetrahydro-2H-pyran-4-yl)ethyl)-3,4-dihydropyrazino[2,3-b]pyrazin-2(1H)-one]
IC50: 250 to 500 nM

CC(C)(O)c1ccc(-c2cnc3c(n2)N(C2CCNCC2)CC(=O)N3)cn1 [Example 108, 6-(6-(2-hydroxypropan-2-yl)pyridin-3-yl)-4-(piperidin-4-yl)-3,4-dihydropyrazino[2,3-b]pyrazin-2(1H)-one]
IC50: 1000 to 10000 nM

Cc1nc(-c2nnc[nH]2)ccc1-c1cnc2c(n1)N(CC1CCOCC1)C(C)(C)C(=O)N2 [Example 74, 3,3-dimethyl-6-(2-methyl-6-(4H-1,2,4-triazol-3-yl)pyridin-3-yl)-4-((tetrahydro-2H-pyran-4-yl)methyl)-3,4-dihydropyrazino[2,3-b]pyrazin-2(1H)-one]
IC50: 0.005 to 250 nM
